# Activity calls are given as the source filed them.
# Experiments:
# [1] = Luminescence-based cell-based high throughput dose response assay to identify activators of the DAF-12 from the parasite S. stercoralis (ssDAF-12).; type: functional
# [2] = target: T1, Oxysterols receptor LXR-beta (Homo sapiens, UniProt P55055); assay: LXR agonists, Gal4 luciferase reporter, dose response, counter-screen for ssDAF-12 agonist project, cell-based, luminescence, HEK293, S. stercoralis campaign (AID 720737); type: functional; settings: read-out: IC50 (the source's name)
# T1 sequence (P55055 whole entry): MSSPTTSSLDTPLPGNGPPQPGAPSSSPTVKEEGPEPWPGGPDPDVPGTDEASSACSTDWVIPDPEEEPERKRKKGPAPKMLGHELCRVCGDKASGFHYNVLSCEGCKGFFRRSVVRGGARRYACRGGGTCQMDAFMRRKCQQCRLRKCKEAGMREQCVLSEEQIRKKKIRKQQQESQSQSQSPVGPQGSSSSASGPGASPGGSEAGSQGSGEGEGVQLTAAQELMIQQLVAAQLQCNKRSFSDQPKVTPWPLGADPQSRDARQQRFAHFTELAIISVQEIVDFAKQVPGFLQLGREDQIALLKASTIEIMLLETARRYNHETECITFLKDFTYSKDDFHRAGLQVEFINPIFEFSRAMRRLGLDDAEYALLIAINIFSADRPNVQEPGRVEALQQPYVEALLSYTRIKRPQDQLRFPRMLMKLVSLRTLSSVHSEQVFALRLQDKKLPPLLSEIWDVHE
# Kallikrein-7 = Kallikrein-7 (Homo sapiens, UniProt P49862); assay: Fluorescence Intensity-based biochemical primary high throughput dose response assay to identify activators of kallikrein-7 (K7) zymogen.
# Transthyretin = Transthyretin (Homo sapiens, UniProt P02766); assay: Luminescence-based cell-based high throughput dose response assay to identify activators of Transthyretin (TTR) transcription.; type: functional
# BJ [3] = assay: BJ-TERT fibroblast viability loss – cell-based, RAS-independent, luminescence, dose response (AID 1933); type: functional; settings: Homo sapiens
# BJ [4] = assay: cells; type: functional, cell-based; settings: Homo sapiens
# [5] = target: Luciferin 4-monooxygenase (Photinus pyralis, UniProt P08659); assay: inhibition of purified Photinus pyralis luciferase – biochemical, luminescence, dose response (AID 1891)
# [6] = Luminescence Cell-Based Dose Confirmation HTS to Identify Inhibitors of Platelet Dense Granule Release. [Related pubchem assays: 1663 (Primary HTS), 1678 (Summary of Project)]; type: functional
# BJ [7] = assay: BJ-TERT-LT-ST fibroblast viability loss – cell-based, RAS-independent, luminescence, dose response (AID 1935); type: functional; settings: Homo sapiens;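 note: BJ fibroblasts immortalized with TERT plus LT and ST oncogenes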
# [8] = DRD fibroblast viability loss – cell-based, non-viral oncogenic, luminescence, dose response (AID 1934); type: functional; settings: Homo sapiens
# [9] = A549 cell cytotoxicity, dose response, cytotoxicity control, plate reader, cherry-pick, antagonist series (AID 743412); type: functional, cell-based
# [10] = toxicity toward HepG2 liver cells – cell-based, plate reader, cherry-pick, antagonist series, cytotoxicity control, dose response (AID 743416); type: functional
# [11] = blockers of bursicon-stimulated LGR2 cAMP reporter – cell-based, HEK293, CRE-luciferase reporter, cherry pick, set 2, dose response (AID 743343); type: functional;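 note: transfected cells were stimulated with diluted bursicon conditioned medium after compound addition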
# [12] = blockade of melanocortin 4 receptor signaling – cell-based, plate reader, cherry pick, counter-screen for LGR2 antagonist project, dose response (AID 743444); type: functional;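 note: transfected HEK 293 cells stimulated with alpha-MSH peptide; potency of inhibitors of the alpha-MSH evoked signal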
# [13] = viability loss in HEK293 cells – cell-based, plate reader, cherry-picked samples, cytotoxicity control, dose response (AID 743446); type: functional
# HEK293 = assay: viability loss in HEK293T cells – cell-based, ATP luminescence, cherry-pick samples, cytotoxicity control, dose response (AID 687005); type: functional; settings: Homo sapiens;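 note: cells exposed to compound for 48 hours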
# [14] = HEK293 Cytotoxicity Assay Measured in Cell-Based System Using Plate Reader - 7071-01_Inhibitor_Dose_CherryPick_Activity_Set2.; type: functional
# [15] = test system: Streptococcus sp. 'group A'; assay: Streptococcus pyogenes SK(-)GAS viability under kanamycin – luminescence, BacTiterGlo, confirmation, counter-screen for streptokinase expression inhibitor project, dose response (AID 1900); type: functional, organism-based; settings: Streptococcus sp. 'group A'
# Streptokinase A = target: T2, Streptokinase A (Streptococcus pyogenes serotype M1, UniProt P10520); assay: viability-normalized secreted streptokinase activity reduction – plasminogen activation absorbance, OD405, dose response (AID 1914); type: functional, Streptococcus pyogenes M1 GAS;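 note: secreted streptokinase activity via plasminogen activation per viability signal from cell pellet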
# T2 sequence (P10520 whole entry): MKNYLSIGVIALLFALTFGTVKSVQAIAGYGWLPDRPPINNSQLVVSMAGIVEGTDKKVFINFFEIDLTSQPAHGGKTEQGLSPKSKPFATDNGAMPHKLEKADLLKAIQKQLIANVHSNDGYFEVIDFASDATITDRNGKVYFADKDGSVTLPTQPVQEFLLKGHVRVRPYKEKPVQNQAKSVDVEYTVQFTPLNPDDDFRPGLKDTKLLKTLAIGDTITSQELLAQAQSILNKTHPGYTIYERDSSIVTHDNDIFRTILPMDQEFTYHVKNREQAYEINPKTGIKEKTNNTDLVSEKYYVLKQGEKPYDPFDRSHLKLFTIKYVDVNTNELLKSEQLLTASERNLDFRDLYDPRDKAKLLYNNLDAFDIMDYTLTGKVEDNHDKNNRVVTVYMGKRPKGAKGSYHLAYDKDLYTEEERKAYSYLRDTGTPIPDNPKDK
# Streptococcus = assay: GAS UMAA2166 growth inhibition – luminescence, BacTiterGlo, counter-screen for streptokinase expression inhibitor project, dose response (AID 1915); type: functional, organism-based; settings: Streptococcus;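 note: potency for reduction of bacterial viability or growth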
# [16] = target: T3, Replicative DNA helicase DnaB (Mycobacterium tuberculosis, UniProt P9WMR3); assay: DnaB intein splicing inhibitors, dose response, biochemical, cell-free fluorescence (AID 449749); type: functional
# T3 sequence (P9WMR3 whole entry): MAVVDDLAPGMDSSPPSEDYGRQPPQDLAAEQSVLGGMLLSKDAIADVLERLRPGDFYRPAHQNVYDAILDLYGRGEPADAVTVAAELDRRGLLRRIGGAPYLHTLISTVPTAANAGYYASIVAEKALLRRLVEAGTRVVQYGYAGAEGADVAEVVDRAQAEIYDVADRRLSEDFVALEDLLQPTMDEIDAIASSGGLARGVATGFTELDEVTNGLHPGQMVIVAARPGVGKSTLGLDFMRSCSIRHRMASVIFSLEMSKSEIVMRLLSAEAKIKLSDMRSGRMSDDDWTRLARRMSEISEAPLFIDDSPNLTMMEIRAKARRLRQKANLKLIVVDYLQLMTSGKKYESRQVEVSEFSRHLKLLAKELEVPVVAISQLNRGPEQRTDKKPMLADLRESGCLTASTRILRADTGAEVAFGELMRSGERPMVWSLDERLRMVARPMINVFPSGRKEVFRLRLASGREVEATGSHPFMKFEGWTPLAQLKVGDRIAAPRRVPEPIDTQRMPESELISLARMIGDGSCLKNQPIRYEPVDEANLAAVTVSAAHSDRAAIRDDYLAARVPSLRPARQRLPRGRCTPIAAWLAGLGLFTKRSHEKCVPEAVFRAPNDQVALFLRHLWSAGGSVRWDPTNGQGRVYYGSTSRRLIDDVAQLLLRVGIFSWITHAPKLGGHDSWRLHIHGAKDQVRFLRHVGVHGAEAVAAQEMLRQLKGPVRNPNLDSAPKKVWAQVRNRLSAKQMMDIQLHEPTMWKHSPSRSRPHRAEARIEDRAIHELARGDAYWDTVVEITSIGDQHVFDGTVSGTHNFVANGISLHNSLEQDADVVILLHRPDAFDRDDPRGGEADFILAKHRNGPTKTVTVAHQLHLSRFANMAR
# Protein RecA = target: T4, Protein RecA (Mycobacterium tuberculosis, UniProt P9WHJ3); assay: Fluorescence Cell-Free Homogeneous Dose Retest to Identify Inhibitors of RecA-Intein Splicing Activity. [Related pubchem assays (depositor defined):AID2097, AID2223, AID489010, AID492950]; type: functional
# T4 sequence (P9WHJ3 whole entry): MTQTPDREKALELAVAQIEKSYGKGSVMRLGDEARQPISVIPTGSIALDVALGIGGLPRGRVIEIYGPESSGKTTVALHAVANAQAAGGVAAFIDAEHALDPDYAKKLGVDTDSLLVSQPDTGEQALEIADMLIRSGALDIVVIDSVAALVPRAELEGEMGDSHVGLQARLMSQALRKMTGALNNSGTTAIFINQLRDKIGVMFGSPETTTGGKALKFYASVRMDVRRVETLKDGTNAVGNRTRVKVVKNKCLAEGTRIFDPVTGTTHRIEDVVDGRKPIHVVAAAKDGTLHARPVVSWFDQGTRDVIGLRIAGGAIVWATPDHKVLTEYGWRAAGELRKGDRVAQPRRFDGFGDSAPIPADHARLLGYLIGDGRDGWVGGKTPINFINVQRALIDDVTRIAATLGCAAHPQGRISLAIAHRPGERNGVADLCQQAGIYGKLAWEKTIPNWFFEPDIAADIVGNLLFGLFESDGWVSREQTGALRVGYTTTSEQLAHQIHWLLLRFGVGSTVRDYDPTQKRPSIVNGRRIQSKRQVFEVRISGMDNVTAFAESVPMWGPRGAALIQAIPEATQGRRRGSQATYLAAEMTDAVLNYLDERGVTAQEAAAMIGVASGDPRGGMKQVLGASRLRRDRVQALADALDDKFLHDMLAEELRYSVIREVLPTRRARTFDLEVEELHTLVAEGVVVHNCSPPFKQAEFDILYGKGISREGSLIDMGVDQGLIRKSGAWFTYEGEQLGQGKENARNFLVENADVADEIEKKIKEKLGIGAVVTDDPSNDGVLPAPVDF
# Vero = assay: cells; type: functional; settings: Chlorocebus sabaeus
# [17] = target: T5, Methionyl-tRNA synthetase, putative (Trypanosoma brucei brucei, UniProt Q38C91); type: functional, Trypanosoma brucei brucei strain 927/4 GUTat10.1
# T5 sequence (Q38C91 whole entry): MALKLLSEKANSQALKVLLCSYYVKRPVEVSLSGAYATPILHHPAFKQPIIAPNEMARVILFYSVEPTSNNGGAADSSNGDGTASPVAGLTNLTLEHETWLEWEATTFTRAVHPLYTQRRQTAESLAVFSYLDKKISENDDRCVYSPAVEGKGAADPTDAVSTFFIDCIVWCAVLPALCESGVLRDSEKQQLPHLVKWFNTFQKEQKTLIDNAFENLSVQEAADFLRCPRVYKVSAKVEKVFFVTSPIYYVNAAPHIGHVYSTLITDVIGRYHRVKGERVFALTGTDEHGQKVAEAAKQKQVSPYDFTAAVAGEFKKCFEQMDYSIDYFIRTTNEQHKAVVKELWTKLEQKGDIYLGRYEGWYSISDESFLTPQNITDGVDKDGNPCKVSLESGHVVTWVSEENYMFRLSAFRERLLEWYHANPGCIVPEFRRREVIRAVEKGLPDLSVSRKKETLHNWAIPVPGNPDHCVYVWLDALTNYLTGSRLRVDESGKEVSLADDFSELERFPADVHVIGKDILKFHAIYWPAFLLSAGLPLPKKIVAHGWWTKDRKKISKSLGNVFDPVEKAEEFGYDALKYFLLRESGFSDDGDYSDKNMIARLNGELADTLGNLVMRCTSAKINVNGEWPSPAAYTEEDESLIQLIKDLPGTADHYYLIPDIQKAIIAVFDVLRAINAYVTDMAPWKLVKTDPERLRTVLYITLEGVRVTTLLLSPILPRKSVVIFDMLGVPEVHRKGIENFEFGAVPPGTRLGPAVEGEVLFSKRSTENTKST
# [18] = Counterscreen for inhibitors of Trypanosoma brucei methionyl tRNA synthetase (MetRS): Luminescence-based cell-based high throughput dose response assay to identify compounds that are cytotoxic to Jurkat human T lymphocyte cells.; type: functional
# [19] = target: T5, Methionyl-tRNA synthetase, putative; type: functional, Trypanosoma brucei brucei strain 927/4 GUTat10.1; remark: listed apart in the source
# [20] = viability loss in HepG2 hepatoma cells – cell-based, ATP luminescence, cherry-pick, activator set 2, cytotoxicity control, dose response (AID 1053143); type: functional
# HeLa = assay: viability loss in HeLa cells – cell-based, ATP luminescence, cherry-pick samples, cytotoxicity control, dose response (AID 687004); type: functional; settings: Homo sapiens
# [21] = target: 1-phosphatidylinositol 4,5-bisphosphate phosphodiesterase gamma-1 (Homo sapiens, UniProt P19174); assay: Counterscreen for inhibitors of phospholipase C isozymes (PLC-B3): Fluorescence-based biochemical high throughput dose response assay to identify inhibitors of phospholipase C isozymes (PLC-gamma1).
# [22] = target: 1-phosphatidylinositol 4,5-bisphosphate phosphodiesterase beta-3 (Homo sapiens, UniProt Q01970); assay: Fluorescence-based biochemical high throughput dose response assay to identify inhibitors of phospholipase C isozymes (PLC-B3).
# Sequence of 1-phosphatidylinositol 4,5-bisphosphate phosphodiesterase beta-3 (Q01970 whole entry): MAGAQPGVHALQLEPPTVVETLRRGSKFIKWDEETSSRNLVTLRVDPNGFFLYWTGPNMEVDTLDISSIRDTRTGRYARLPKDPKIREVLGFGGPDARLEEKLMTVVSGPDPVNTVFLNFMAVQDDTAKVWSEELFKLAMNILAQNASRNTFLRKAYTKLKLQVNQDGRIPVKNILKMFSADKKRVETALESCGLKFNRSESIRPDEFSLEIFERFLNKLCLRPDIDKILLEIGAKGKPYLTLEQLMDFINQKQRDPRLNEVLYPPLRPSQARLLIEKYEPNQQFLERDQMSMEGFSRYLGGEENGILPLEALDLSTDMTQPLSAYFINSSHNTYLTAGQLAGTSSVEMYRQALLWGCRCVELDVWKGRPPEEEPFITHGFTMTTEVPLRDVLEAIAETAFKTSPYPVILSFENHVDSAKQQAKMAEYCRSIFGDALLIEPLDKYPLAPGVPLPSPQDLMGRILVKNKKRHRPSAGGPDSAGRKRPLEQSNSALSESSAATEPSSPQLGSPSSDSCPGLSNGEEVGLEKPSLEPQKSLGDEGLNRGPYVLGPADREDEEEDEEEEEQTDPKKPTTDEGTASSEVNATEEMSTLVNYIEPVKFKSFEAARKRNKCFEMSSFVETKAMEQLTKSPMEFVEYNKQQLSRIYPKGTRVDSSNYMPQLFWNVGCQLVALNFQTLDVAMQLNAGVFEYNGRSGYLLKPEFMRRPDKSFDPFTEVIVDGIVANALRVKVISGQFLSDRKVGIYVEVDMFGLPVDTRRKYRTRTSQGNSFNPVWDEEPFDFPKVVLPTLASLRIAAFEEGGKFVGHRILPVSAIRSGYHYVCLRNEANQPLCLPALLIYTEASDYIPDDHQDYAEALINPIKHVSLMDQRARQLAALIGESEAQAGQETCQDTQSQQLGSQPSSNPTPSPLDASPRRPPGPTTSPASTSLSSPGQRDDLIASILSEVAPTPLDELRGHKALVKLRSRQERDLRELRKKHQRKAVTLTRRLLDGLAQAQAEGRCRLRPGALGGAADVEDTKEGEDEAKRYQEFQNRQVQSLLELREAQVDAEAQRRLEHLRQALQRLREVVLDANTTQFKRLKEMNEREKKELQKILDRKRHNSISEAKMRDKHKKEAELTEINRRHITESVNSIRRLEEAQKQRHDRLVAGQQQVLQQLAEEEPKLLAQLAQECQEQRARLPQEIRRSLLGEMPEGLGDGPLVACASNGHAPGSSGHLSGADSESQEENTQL
# Sequence of Kallikrein-7 (P49862 whole entry): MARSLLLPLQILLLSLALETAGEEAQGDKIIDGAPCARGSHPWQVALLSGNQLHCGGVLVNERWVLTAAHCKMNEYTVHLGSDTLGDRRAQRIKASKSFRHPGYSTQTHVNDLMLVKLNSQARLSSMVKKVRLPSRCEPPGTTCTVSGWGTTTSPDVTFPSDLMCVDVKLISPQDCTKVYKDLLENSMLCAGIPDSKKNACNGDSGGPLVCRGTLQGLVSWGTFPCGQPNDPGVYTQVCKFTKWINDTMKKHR
# Sequence of 1-phosphatidylinositol 4,5-bisphosphate phosphodiesterase gamma-1 (P19174 whole entry): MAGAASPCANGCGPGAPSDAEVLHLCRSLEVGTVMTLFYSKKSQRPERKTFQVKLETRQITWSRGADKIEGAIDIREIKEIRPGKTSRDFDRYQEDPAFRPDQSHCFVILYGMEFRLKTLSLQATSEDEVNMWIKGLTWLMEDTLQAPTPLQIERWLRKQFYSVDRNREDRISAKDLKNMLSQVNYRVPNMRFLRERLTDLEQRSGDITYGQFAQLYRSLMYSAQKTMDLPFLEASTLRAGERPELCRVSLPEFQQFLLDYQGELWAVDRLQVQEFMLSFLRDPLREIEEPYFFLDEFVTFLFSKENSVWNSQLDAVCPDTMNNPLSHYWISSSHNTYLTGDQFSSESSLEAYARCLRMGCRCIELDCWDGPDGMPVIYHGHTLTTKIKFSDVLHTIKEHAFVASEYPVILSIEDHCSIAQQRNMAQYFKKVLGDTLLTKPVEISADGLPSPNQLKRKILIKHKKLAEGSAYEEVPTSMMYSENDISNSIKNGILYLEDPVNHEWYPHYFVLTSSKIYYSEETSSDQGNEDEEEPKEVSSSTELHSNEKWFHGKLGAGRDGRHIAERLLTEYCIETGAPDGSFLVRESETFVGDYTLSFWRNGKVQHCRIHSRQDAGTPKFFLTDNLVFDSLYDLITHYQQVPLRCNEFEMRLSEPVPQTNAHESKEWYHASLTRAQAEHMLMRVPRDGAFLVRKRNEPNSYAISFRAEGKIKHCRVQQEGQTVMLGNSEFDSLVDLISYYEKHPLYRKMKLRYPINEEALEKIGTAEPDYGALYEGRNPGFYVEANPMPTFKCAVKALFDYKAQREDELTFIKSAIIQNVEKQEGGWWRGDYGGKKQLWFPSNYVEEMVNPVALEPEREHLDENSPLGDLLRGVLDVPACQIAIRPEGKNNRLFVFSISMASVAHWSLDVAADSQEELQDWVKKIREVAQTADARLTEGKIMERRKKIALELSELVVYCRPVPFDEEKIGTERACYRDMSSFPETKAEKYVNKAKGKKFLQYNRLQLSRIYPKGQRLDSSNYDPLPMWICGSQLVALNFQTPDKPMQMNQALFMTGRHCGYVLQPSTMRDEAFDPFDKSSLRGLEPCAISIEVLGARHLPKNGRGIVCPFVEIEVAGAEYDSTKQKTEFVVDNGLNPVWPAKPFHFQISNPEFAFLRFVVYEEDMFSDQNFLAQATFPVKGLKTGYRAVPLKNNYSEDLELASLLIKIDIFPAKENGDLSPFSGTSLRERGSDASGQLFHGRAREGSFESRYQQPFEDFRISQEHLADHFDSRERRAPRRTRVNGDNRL
# Sequence of Luciferin 4-monooxygenase (P08659 whole entry): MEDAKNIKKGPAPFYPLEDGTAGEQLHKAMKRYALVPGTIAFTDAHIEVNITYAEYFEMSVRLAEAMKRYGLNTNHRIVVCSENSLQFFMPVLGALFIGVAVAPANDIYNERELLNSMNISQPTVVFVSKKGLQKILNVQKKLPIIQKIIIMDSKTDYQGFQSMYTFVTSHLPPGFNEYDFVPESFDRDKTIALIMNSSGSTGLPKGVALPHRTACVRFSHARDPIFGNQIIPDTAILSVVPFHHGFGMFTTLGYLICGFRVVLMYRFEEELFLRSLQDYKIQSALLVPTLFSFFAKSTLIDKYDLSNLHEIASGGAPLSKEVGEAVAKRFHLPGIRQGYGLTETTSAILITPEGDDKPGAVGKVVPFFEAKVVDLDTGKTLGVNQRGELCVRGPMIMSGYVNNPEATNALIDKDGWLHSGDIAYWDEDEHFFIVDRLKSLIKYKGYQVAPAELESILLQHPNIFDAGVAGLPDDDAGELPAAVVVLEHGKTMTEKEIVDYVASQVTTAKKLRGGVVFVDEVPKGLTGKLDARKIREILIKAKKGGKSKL
compound,measurement,setting,value
Cc1ccc2nsnc2c1NC(=O)c1cccnc1Cl,IC50,[1],> 67.5 µM (inactive)
same,EC50,[2],> 67.5 µM (inactive)
O=C(Nc1c(-c2ccccc2)nc2ncccn12)c1ccccc1,EC50,Kallikrein-7,> 69.6 µM (inactive)
CC(C)CNC(=O)CSc1nnc2ccccn12,EC50,Transthyretin,> 167 µM (inactive)
CCOc1ccc(Nc2nc(N)c3ccccc3n2)cc1,EC50,BJ [3],7.8 µM (active)
same,EC50,BJ [4],8.24 µM (active)
same,EC50,[5],0.765 µM (active)
same,EC50,[6],0.738 µM (active)
same,EC50,BJ [7],17.5 µM (active)
same,EC50,[8],8.22 µM (active)
same,AC50,[9],12.8 µM (active)
same,AC50,[10],12.9 µM (active)
same,AC50,[11],1.62 µM (active)
same,AC50,[12],2.31 µM (active)
same,AC50,[13],13.2 µM (active)
O=C(CN1CCOCC1)N[C@@H]1CC[C@@H](CCNC(=O)C2CCC2)O[C@@H]1CO,AC50,HEK293,14.8 µM (active)
same,AC50,[14],14.8 µM (active)
Cc1[nH]c2ccccc2c1/C=N/Nc1nc2ccccc2[nH]1,EC50,[15],7.74 µM (active)
same,EC50,Streptokinase A,> 150 µM (not active)
same,EC50,Streptococcus,9.86 µM (active)
same,AC50,[16],> 380 µM (inactive)
same,EC50,Protein RecA,39.3 µM (active)
same,CC50,Vero,> 25 µM (active)
same,IC50,[17],17.1 µM (inactive)
same,IC50,[18],36.2 µM (inactive)
same,IC50,[19],36.9 µM (inactive)
same,AC50,[20],26 µM (active)
COc1ccc(C2Nc3ccccc3C(=O)N2NS(C)(=O)=O)cc1OC (configuration not stated),EC50,Kallikrein-7,38.8 µM (inactive)
O=C(O)C(=O)/C(=C\c1ccccc1)c1ccc2ccccc2n1,IC50,[1],> 67.5 µM (inactive)
same,EC50,[2],> 67.5 µM (inactive)
CC(C)(C)c1ccc(OCC(=O)NC(c2ccccc2)c2ccccc2)cc1,AC50,HeLa,> 70 µM (inactive)
same,AC50,HEK293,3.2 µM (active)
same,AC50,[14],3.2 µM (active)
O=Cc1cc(N=Nc2ccc(S(=O)(=O)O)cc2)ccc1O,IC50,[21],39.3 µM (inactive)
same,IC50,[22],> 122 µM (inactive)
Cc1ccccc1C(=O)NC1CCN(Cc2nnnn2C2CCCC2)CC1,IC50,[21],> 122 µM (inactive)
same,IC50,[22],> 122 µM (inactive)
